Assays:
[1] = tested on: participants diagnosed with MELAS; experiment: MELAS study: inflammatory biomarkers in plasma (InflammationMAP panel); assay type: in vivo, human
Description: (§1) Plasma and serum samples for biomarkers were collected from each participant. These biomarkers tested the target engagement of Compound I as well as the impact of the compound on disease. Plasma or serum samples were analyzed for concentrations of growth differentiation factor 15 (GDF-15), lactate, pyruvate, alanine, neurofilament light chain (NFL), vascular cell adhesion molecule 1, interleukin-1beta, asymmetric dimethylarginine (ADMA), L arginine, and other biomarkers relevant to the pathophysiology of mitochondrial disease, as well as their response to Compound I.
(§2) This change was observed across all brain regions of interest. Effect size throughout this disclosure is defined as the means change from baseline in a particular parameter that is being measured, divided by the standard deviation. Effect sizes closer to 1 or −1 (positive or negative dependent on the direction of movement for the specific parameter, i.e. +0.8 to +1.0 or −0.8 to −1.0) are usually considered large. Effect sizes between 0.5 and 0.8 or −0.5 and −0.8 (positive or negative dependent on the direction of movement for the specific parameter) are usually considered moderate. Effect sizes closer to below 0.5 or −0.5 (positive or negative dependent on the direction of movement for the specific parameter) are usually considered small.
26 out of the 40 (65%) inflammatory biomarkers assessed in plasma as part of the InflammationMAP® panel were reduced with effect sizes less or equal than −0.3. Only 3 of the 40 (7.5%) inflammatory biomarkers assessed in plasma increased with an effect size equal or more than 0.3. The changes in concentrations as well as the effect sizes for inflammatory markers measured in plasma are summarized in the 3 tables below (Table 1: large effect size; Table 2: moderate effect size and Table 3: small effect size). The concentration values in Tables 1-3 were measured in the standard units for each of these laboratory measures as known in the art. Many of these biomarkers tended to increase again back to baseline levels after treatment with Compound I was stopped, supporting a drug effect.

[2] = tested on: participants diagnosed with MELAS; experiment: MELAS study: plasma biomarkers of mitochondrial dysfunction (lactate, GDF-15, FGF-21); assay type: in vivo, human
Description: as §1, §2

rodent = details: single dose; cited from earlier work
[3] = plasma, trend towards reduction

Fc1ccccc1Cc1nc(-c2nc(C(F)(F)F)n[nH]2)cn2ccnc12 [Compound I, zagociguat]
Alpha-1-Antitrypsin, Effect size ([1]; 15 mg QD, day 29 vs baseline): −0.4
Alpha-1-Antitrypsin, change in concentration, Mean ([1]; 15 mg QD, day 29 vs baseline): −0.2
Alpha-2-Macroglobulin, Effect size ([1]; 15 mg QD, day 29 vs baseline): −0.3
Alpha-2-Macroglobulin, change in concentration, Mean ([1]; 15 mg QD, day 29 vs baseline): −0.2
Beta-2-Microglobulin, Effect size ([1]; 15 mg QD, day 29 vs baseline): −1.0
Beta-2-Microglobulin, change in concentration, Mean ([1]; 15 mg QD, day 29 vs baseline): −0.5
Brain-Derived Neurotrophic Factor, Effect size ([1]; 15 mg QD, day 29 vs baseline): −0.5
Brain-Derived Neurotrophic Factor, change in concentration, Mean ([1]; 15 mg QD, day 29 vs baseline): −2.1
C-Reactive Protein, Effect size ([1]; 15 mg QD, day 29 vs baseline): −0.6
C-Reactive Protein, change in concentration, Mean ([1]; 15 mg QD, day 29 vs baseline): −3.4
EN-RAGE, Effect size ([1]; 15 mg QD, day 29 vs baseline): −0.4
EN-RAGE, change in concentration, Mean ([1]; 15 mg QD, day 29 vs baseline): −28.4
Eotaxin-1, Effect size ([1]; 15 mg QD, day 29 vs baseline): −0.4
Eotaxin-1, change in concentration, Mean ([1]; 15 mg QD, day 29 vs baseline): −10.1
Factor VII, Effect size ([1]; 15 mg QD, day 29 vs baseline): −0.4
Factor VII, change in concentration, Mean ([1]; 15 mg QD, day 29 vs baseline): −87.4
Ferritin, Effect size ([1]; 15 mg QD, day 29 vs baseline): −0.6
Ferritin, change in concentration, Mean ([1]; 15 mg QD, day 29 vs baseline): −21.4
Fibrinogen, Effect size ([1]; 15 mg QD, day 29 vs baseline): −0.4
Fibrinogen, change in concentration, Mean ([1]; 15 mg QD, day 29 vs baseline): −1.4
Granulocyte-Macrophage Colony-Stimulating Factor, Effect size ([1]; 15 mg QD, day 29 vs baseline): −0.4
Granulocyte-Macrophage Colony-Stimulating Factor, change in concentration, Mean ([1]; 15 mg QD, day 29 vs baseline): −13.6
Immunoglobulin A, Effect size ([1]; 15 mg QD, day 29 vs baseline): −0.5
Immunoglobulin A, change in concentration, Mean ([1]; 15 mg QD, day 29 vs baseline): −0.4
Immunoglobulin M, Effect size ([1]; 15 mg QD, day 29 vs baseline): −0.6
Immunoglobulin M, change in concentration, Mean ([1]; 15 mg QD, day 29 vs baseline): −0.4
Intercellular Adhesion Molecule 1, Effect size ([1]; 15 mg QD, day 29 vs baseline): −0.3
Intercellular Adhesion Molecule 1, change in concentration, Mean ([1]; 15 mg QD, day 29 vs baseline): −12.1
Interleukin-10 (IL-10), Effect size ([1]; 15 mg QD, day 29 vs baseline): 0.4
Interleukin-10 (IL-10), change in concentration, Mean ([1]; 15 mg QD, day 29 vs baseline): 0.3
Interleukin-17 (IL-17), Effect size ([1]; 15 mg QD, day 29 vs baseline): 0.5
Interleukin-17 (IL-17), change in concentration, Mean ([1]; 15 mg QD, day 29 vs baseline): 0.03
Interleukin-18, Effect size ([1]; 15 mg QD, day 29 vs baseline): −0.4
Interleukin-18, change in concentration, Mean ([1]; 15 mg QD, day 29 vs baseline): −25.6
Matrix Metalloproteinase-9 (MMP-9), Effect size ([1]; 15 mg QD, day 29 vs baseline): 0.4
Matrix Metalloproteinase-9 (MMP-9), change in concentration, Mean ([1]; 15 mg QD, day 29 vs baseline): 37.3
Myoglobin, Effect size ([1]; 15 mg QD, day 29 vs baseline): −0.4
Myoglobin, change in concentration, Mean ([1]; 15 mg QD, day 29 vs baseline): −32.5
Plasminogen Activator Inhibitor 1, Effect size ([1]; 15 mg QD, day 29 vs baseline): −0.4
Plasminogen Activator Inhibitor 1, change in concentration, Mean ([1]; 15 mg QD, day 29 vs baseline): −11.6
Pulmonary and Activation-Regulated Chemokine, Effect size ([1]; 15 mg QD, day 29 vs baseline): −0.5
Pulmonary and Activation-Regulated Chemokine, change in concentration, Mean ([1]; 15 mg QD, day 29 vs baseline): −15.3
Serum Amyloid P-Component, Effect size ([1]; 15 mg QD, day 29 vs baseline): −0.9
Serum Amyloid P-Component, change in concentration, Mean ([1]; 15 mg QD, day 29 vs baseline): −5.0
T-Cell-Specific Protein RANTES, Effect size ([1]; 15 mg QD, day 29 vs baseline): −0.5
T-Cell-Specific Protein RANTES, change in concentration, Mean ([1]; 15 mg QD, day 29 vs baseline): −7.2
Thyroxine-Binding Globulin, Effect size ([1]; 15 mg QD, day 29 vs baseline): −0.7
Thyroxine-Binding Globulin, change in concentration, Mean ([1]; 15 mg QD, day 29 vs baseline): −8.4
Tumor necrosis factor receptor 2, Effect size ([1]; 15 mg QD, day 29 vs baseline): −0.7
Tumor necrosis factor receptor 2, change in concentration, Mean ([1]; 15 mg QD, day 29 vs baseline): −1.8
Vascular Cell Adhesion Molecule-1, Effect size ([1]; 15 mg QD, day 29 vs baseline): −0.6
Vascular Cell Adhesion Molecule-1, change in concentration, Mean ([1]; 15 mg QD, day 29 vs baseline): −98.3
Vascular Endothelial Growth Factor, Effect size ([1]; 15 mg QD, day 29 vs baseline): −0.3
Vascular Endothelial Growth Factor, change in concentration, Mean ([1]; 15 mg QD, day 29 vs baseline): −7.0
Vitamin D-Binding Protein, Effect size ([1]; 15 mg QD, day 29 vs baseline): −0.5
Vitamin D-Binding Protein, change in concentration, Mean ([1]; 15 mg QD, day 29 vs baseline): −26.5
von Willebrand Factor, Effect size ([1]; 15 mg QD, day 29 vs baseline): −0.4
von Willebrand Factor, change in concentration, Mean ([1]; 15 mg QD, day 29 vs baseline): −123.4
inflammatory biomarkers increased with an effect size equal or more than 0.3 (3 of the 40) ([1]; 40 biomarkers assessed): 7.5%
inflammatory biomarkers reduced with effect sizes less or equal than −0.3 (26 out of the 40) ([1]; 40 biomarkers assessed): 65%
participants with reductions in GDF-15 ([2]; in vivo): 4 of 8
participants with reductions in lactate ([2]; in vivo): 6 of 8
reductions in GDF-15, greatest ([2]; participants with higher baseline concentrations): up to 39%
FGF-21, effect size [2, 3]: −0.2
GDF-15, effect size [2, 3]: −0.5
Lactate concentrations, effect size [2, 3]: −0.5
fMRI-BOLD signals (rodent): increased fMRI-BOLD signals
levels of cGMP in the CNS (rodent): increased levels of cGMP in the CNS
qEEG gamma-band oscillatory power (rodent): elevated qEEG gamma-band oscillatory power
